In this test the test system is Trichomonas vaginalis G3 trophozoites. Conditions: for T.vaginalis_Absorbance_Rep1: replicate 1, raw absorbance; for T.vaginalis_Absorbance_Rep2: replicate 2, raw absorbance; for T. vaginalis HTS result in words: 384-well, 25 μL, 10,000 cells/mL, 48 h, biological duplicates, hit = >50% inhibition.
[1] abbreviates: HTS, parasite screen at 1 µg/mL, replicate 1.
The mark [2] stands for this setting: HTS, parasite screen at 1 µg/mL.
Where [3] appears, read: HTS, parasite screen at 1 µg/mL, replicate 2.
Where [4] appears, read: HTS replicate 1, parasite screen 1 µg/mL.
The mark [5] stands for this setting: HTS replicate 2, parasite screen 1 µg/mL.

Where two headings read alike, the source gives them in different places. Positions of bridges follow the written chain, without caps; N, C: chain ends. Non-standard residues stand in square brackets, D forms with d. Residues, ends and D or L forms follow the SMILES beside them. *: point of attachment. d(aThr) = C[C@@H](O)[C@@H](N)C(=O)O; X1 = CCCCCCCCCCCC(O)CC(=O)*

Consider `Cc1c2c(c(O)c3c(O)cccc13)C(=O)C1(O)C(O)=C(C(N)=O)C(=O)C(N(C)C)C1C2.Cl` (stereo not shown) [Epianhydrotetracycline hydrochloride], for which, under setting [1], the T.vaginalis_%inb_Rep1 worked out at 8.78%. Under setting [2], this molecule yielded a T.vaginalis_Absorbance_Rep1 of 0.872 and a T.vaginalis_Absorbance_Rep2 of 0.644. In addition, the T.vaginalis_%inb_Rep2 under setting [3] stood at 1.74%.
For `CCCC[C@H](O)[C@@H]1CC(OC)=CC(=O)O1` [Pestalotin], the T.vaginalis_%inb_Rep1 under setting [4] is listed as 11.05%. For the same molecule, the T.vaginalis_%inb_Rep2 under setting [5] was 11.16%.
Turning to `CN(C)C1C(=O)C(C(=O)NCN2CCN(CCO)CC2)=C(O)C2(O)C(=O)C3=C(O)c4c(O)cccc4C(C)(O)C3CC12` (stereo not shown) [Pipacycline], the T.vaginalis_%inb_Rep1 under setting [4] turned out to be 11.66%. Under setting [5], this molecule came in with a T.vaginalis_%inb_Rep2 of 12.19%.
On to `CC(=O)c1c(O)cc(O)c(C(C)=O)c1O` [Diacetylphloroglucinol], for which the T.vaginalis_%inb_Rep1 under setting [1] is 9.32%. Under setting [2], this molecule gave a T.vaginalis_Absorbance_Rep1 of 0.882 and a T.vaginalis_Absorbance_Rep2 of 0.768. Also, the T.vaginalis_%inb_Rep2 under setting [3] is reported as 10.70%.
As to Pyripyropene A, the T.vaginalis_%inb_Rep1 under setting [4] was determined as 11.61%. This molecule came in with a T.vaginalis_%inb_Rep2 under setting [5] of 12.83%.
`CC[C@H]1CCC[C@H](O)[C@@H](C)C(=O)C2=C[C@H]3[C@@H]4C[C@H](O)C[C@H]4CC[C@H]3[C@@H]2CC(=O)O1` [Dihydrospinosyn A aglycone] showed a T.vaginalis_%inb_Rep1 under setting [1] of 13.89%. Under setting [2], this molecule gave a T.vaginalis_Absorbance_Rep1 of 0.967 and a T.vaginalis_Absorbance_Rep2 of 0.794. The molecule also came in with a T.vaginalis_%inb_Rep2 under setting [3] of 12.58%.
In the case of `CCCCCCCCCCCC(O)CC(=O)N[C@@H](CC(C)C)C(=O)N[C@H](CCC(=O)O)C(=O)N[C@H]1C(=O)N[C@H](C(C)C)C(=O)N[C@@H](CC(C)C)C(=O)N[C@H](CO)C(=O)N[C@@H](CC(C)C)C(=O)N[C@@H](CC(C)C)C(=O)N[C@H](CO)C(=O)N[C@@H](C(C)C)C(=O)O[C@@H]1C` (stereo partly shown) [Orfamide B] (X1-L[dE][d(aThr)][dV]L[dS]LL[dS]V; ester 3-C), under setting [4], the T.vaginalis_%inb_Rep1 came out at 16.23%. Under setting [5], the T.vaginalis_%inb_Rep2 was found to be 12.19%.
Take `COC1=C(OC)C(=O)C(C)=CC1=O` [Fumigatin methylether]: the T.vaginalis_%inb_Rep1 under setting [1] was 13.18%. Under setting [2], this molecule registered a T.vaginalis_Absorbance_Rep1 of 0.962 and a T.vaginalis_Absorbance_Rep2 of 0.785. Under setting [3], this molecule gave a T.vaginalis_%inb_Rep2 of 9.62%.
In turn, `C[C@@H]1[C@H](O)[C@@H](C)/C=C/C=C/CC/C=C/C=C/C=C/C=C/[C@H](O[C@@H]2O[C@H](C)[C@@H](O)[C@H](N)[C@@H]2O)C[C@@H]2O[C@](O)(C[C@@H](O)[C@H](O)CC[C@@H](O)C[C@@H](O)C[C@@H](O)CC(=O)O[C@H]1C)C[C@H](O)[C@H]2C(=O)O` [Nystatin A1] showed a T.vaginalis_%inb_Rep1 under setting [4] of 11.66%. Moreover, the T.vaginalis_%inb_Rep2 under setting [5] was 11.87%.
For `COc1ccc(C[C@H]2NC[C@H](O)[C@H]2OC(C)=O)cc1` [anisomycin, reference compound], the “T. vaginalis HTS result in words” value was “supported the anti-trichomonal activity”.
Turning to `C/C1=C\C(C)C(O)/C(C)=C/C(O[C@H]2O[C@H](CO)[C@@H](O)[C@H](O)[C@@H]2O)C(O)C(C)C(O)CC(O)/C=C\C(C)C(O)C(C)CCC(O)CC(O)C(C)C(O)C(C)C(O)CC(O)CC(O)C(C)C(C(C)CCCCCCN)OC(=O)CCCCCC(O)C(C)C(O)CC/C=C/C(C)C1O` (stereo partly shown) [Monazomycin], the T.vaginalis_%inb_Rep1 under setting [4] is on record as 9.53%. Also, under setting [5], the T.vaginalis_%inb_Rep2 is 13.73%.
As to `C/C=C\C=C\[C@@H]1O[C@](O)([C@H](CO[C@H]2C[C@@H](OC)[C@@H](O[C@@H]3C[C@@H](OC)[C@@H](O[C@H]4C[C@H](OC)[C@H](O)[C@H](C)O4)[C@H](C)O3)[C@@H](C)O2)C(=O)NC/C=C/C=C(\C)[C@@H](OC)[C@H](C)[C@H]2C[C@H](O)[C@H](/C=C/C=C/C=C/C(=O)O)O2)[C@H](OC(=O)Cc2ccccc2)[C@H](O)C1(C)C` [Phenelfamycin E], under setting [4], the T.vaginalis_%inb_Rep1 was 11.16%. This molecule also gave a T.vaginalis_%inb_Rep2 under setting [5] of 10.07%.
Under setting [4], `C/C=C(\C)c1c(Cl)c(OC)c(C)c2c1Oc1c(Cl)c(O)c(Cl)c(C)c1C(=O)O2` [Nidulin] displayed a T.vaginalis_%inb_Rep1 of 13.95%. This molecule also gave a T.vaginalis_%inb_Rep2 under setting [5] of 15.46%.
Consider `CC1=CCCC(C)C(O)C(C)C(O)CCC=CC(C)C(O)C=CC(C)C(O)C(C)=CC(O[C@H]2O[C@H](CO)[C@@H](O)[C@H](O)[C@@H]2O)C(O)CC(O)CC(O)CC(O)C(C)C(O)C(C)C(O)CC(O)CC(O)C=CCC(C(C)C(O)CCCN)OC1=O` (stereo partly shown) [Desertomycin A], for which the T.vaginalis_%inb_Rep1 under setting [1] turned out to be 12.39%. Under setting [2], the T.vaginalis_Absorbance_Rep1 is reported as 0.939 and the T.vaginalis_Absorbance_Rep2 is recorded as 0.798. Further, the T.vaginalis_%inb_Rep2 under setting [3] came to 12.87%.
With `COc1ccc(/C=C/C(=O)O)cc1O` [BIA-I1729], the T.vaginalis_%inb_Rep1 (replicate 1, parasite screen at 1 µg/mL) turned out to be 11.16%. Moreover, for the setting “replicate 2, parasite screen at 1 µg/mL”, the T.vaginalis_%inb_Rep2 worked out at 13.98%.
Take `CC[C@H]1OC(=O)[C@H](C)[C@@H](O[C@H]2C[C@@](C)(OC)[C@@H](O)[C@H](C)O2)[C@H](C)[C@@H](O[C@@H]2O[C@H](C)C[C@H](N(C)C)[C@H]2O)[C@](C)(O)C[C@@H](C)C(=O)[C@H](C)[C@@H](O)[C@H]1C` [Erythromycin B]: the T.vaginalis_%inb_Rep1 under setting [1] came out at 4.47%. Under setting [2], the T.vaginalis_Absorbance_Rep1 came out at 0.792 and the T.vaginalis_Absorbance_Rep2 is 0.643. Moreover, the T.vaginalis_%inb_Rep2 under setting [3] was 1.66%.
On the same counts, the results for `CO[C@H]1C[C@H](O[C@H]2[C@H](C)O[C@@H](O[C@@H]3/C(C)=C/C[C@@H]4C[C@@H](C[C@]5(C=C[C@H](C)[C@@H](C6CCCCC6)O5)O4)OC(=O)[C@@H]4C=C(C)[C@@H](O)[C@H]5OC/C(=C\C=C\[C@@H]3C)[C@]54O)C[C@@H]2OC)O[C@@H](C)[C@@H]1O` [Doramectin] are 11.20%, 0.917, 0.775 and 11.21%.
In the case of `CN[C@@H]1C[C@H]2O[C@@](C)([C@@H]1OC)n1c3ccccc3c3c4c(c5c6ccccc6n2c5c31)C(=O)NC4=O` [7-oxostaurosporine, reference compound], the “T. vaginalis HTS result in words” value was “active analogues”.
`COc1cc2c(oc(=O)c3cc(C)cc(OC)c32)c2c(C3OC(C(C)O)C(O)C3O)ccc(O)c12` (stereo not shown) [Gilvocarcin M] yielded a T.vaginalis_%inb_Rep1 under setting [1] of 10.14%. Under setting [2], this molecule returned a T.vaginalis_Absorbance_Rep1 of 0.902 and a T.vaginalis_Absorbance_Rep2 of 0.852. This molecule returned a T.vaginalis_%inb_Rep2 under setting [3] of 13.92%.
`O=c1[nH]c2ccccc2c(-c2cccc(O)c2)c1O` [Viridicatol] registered a T.vaginalis_%inb_Rep1 under setting [1] of 6.71%. In addition, under setting [3], the T.vaginalis_%inb_Rep2 stood at 14.99%.
As to `CCC/C=C/C=C/C1C[C@@H](O)[C@@H](O)C(=O)[C@H]1C=O` (stereo partly shown) [Frequentin], under setting [1], the T.vaginalis_%inb_Rep1 amounted to 13.62%. Further, under setting [2], the T.vaginalis_Absorbance_Rep1 was determined as 0.962 and the T.vaginalis_Absorbance_Rep2 was found to be 0.727. This molecule also had a T.vaginalis_%inb_Rep2 under setting [3] of 7.74%.
In turn, `CCC1OC2(CCC1C)CC1CC(CC=C(C)CC(C)C=CC=C3COC4C(=NO)C(C)=CC(C(=O)O1)C34O)O2` (stereo not shown) [Milbemycin A4 oxime] had a T.vaginalis_%inb_Rep1 under setting [4] of 13.39%. For the same molecule, the T.vaginalis_%inb_Rep2 under setting [5] was determined as 13.53%.
On the same counts, the results for `Cc1cc(=O)n2c3c(c4c(cc13)c(CO)cc(=O)n4C)OC2` [Nybomycin] are 11.05% and 10.26%.
In turn, `C/C=C(\C)c1cc(O)c(C)c2c1Oc1cc(O)cc(C)c1C(=O)O2` [Unguinol] gave a T.vaginalis_%inb_Rep1 under setting [1] of 8.70%. Moreover, the T.vaginalis_%inb_Rep2 under setting [3] came out at 4.39%.

For the origin of these results see paper PMC7897990, “TriTOX: A novel Trichomonas vaginalis assay platform for high-throughput screening of compound libraries” (International Journal for Parasitology: Drugs and Drug …, 2021).
